One may read the melting point as the temperature, or range, at which the solid turns liquid.

Experimental findings from a melting point compilation (Tetko et al.) are described below.

Take `NC(CN1CCc2ccccc21)=NO`: the melting point was in the range of 93 to 95 °C.
Then `O=C(O)CSc1ccccc1[N+](=O)[O-]`, with 166 to 168 °C; and `Nc1cccc(OCc2cccnc2)c1`, with 97 to 99 °C; and `Clc1nnc(-c2ccccc2)n1C1CC1`, with 159 to 161 °C.
Then `CCc1ccc(OCc2nnc(S)n2Cc2ccccc2)cc1`, with 137 to 139 °C.
Then `OCc1cc(-c2ccccc2)[nH]n1`, with 144 to 146 °C.
Molecule `N#Cc1ccnc(-n2cncn2)c1` had a melting point of 149 to 151 °C.
Then `CCOC(=O)c1cnn2cccnc12`, with 117 to 119 °C; and `O=C(OCc1ccc(Br)cc1)c1ccccc1O`, with 69 to 71 °C.
The same measure for `NC(=O)NCc1ccco1`: 120 to 122 °C.
Molecule `Nc1ccc(Cl)c(C(=O)NCc2cccs2)c1` had a melting point of 69 to 71 °C.
Then `O=S(=O)(Cl)c1ccc(S(F)(F)(F)(F)F)cc1`, with 82 to 84 °C.
Then `CC(C)c1nc(-c2cccc3ncccc23)n[nH]1`, with 143 to 145 °C; and `CCNc1nc(C)c(C(=O)OCC)s1`, with 102 to 104 °C.
Then `Nc1nc2ccccc2n1-c1ccccc1F`, with 121 to 123 °C; and `O=C(CCl)NCC(=O)Nc1ccccc1Br`, with 218 to 220 °C.
The molecule `CC(C)C(=O)Nc1nc(CC(=O)O)cs1` had a melting point of 187 to 189 °C.
Then `CC(Sc1ccccc1Cl)C(=O)O` (stereo unspecified), with 50 to 52 °C.
On to `OCc1cnn(-c2ccccc2)n1`, for which the melting point fell in the range of 70 to 72 °C.
With `Cc1ccc(-c2nc(C(=O)O)cs2)n1C`, the melting point lay within 139 to 141 °C.
Then `Cc1ccc2c(c1C)NC(=O)C2=O`, with 228 to 232 °C; and `O=C(O)Cc1cnn(-c2ccccc2)c1`, with 107 to 109 °C.
The same measure for `CC(C)(C)OC(=O)N(CC(=O)O)c1ccccc1`: 84 to 86 °C.
Then `CCc1ccccc1OCC(=O)NN`, with 107 to 109 °C; and `COc1cc(C(=O)N2CCCC(C(=O)O)C2)cc(OC)c1OC` (stereo unspecified), with 189 to 191 °C; and `CC1(c2cc3ccccc3o2)NC(=O)NC1=O` (stereo unspecified), with 203 to 205 °C.
For `CCOC(=O)c1oc(NC)nc1C`, the melting point lay in the range of 103 to 105 °C.
As to `Cc1cnc(Br)nc1Br`, the melting point lay in the range of 58 to 60 °C.
The same measure for `O=C1COc2ccc(F)cc21`: 104 to 106 °C; for `CCC(CC(=O)O)c1ccccc1` (stereo unspecified): 59 to 61 °C.
Then `O=c1ccc2ccc(Cl)c(Cl)c2[nH]1`, with 241 to 243 °C; and `OCCOc1ccccc1C(F)(F)F`, with 74 to 76 °C; and `O=C(CCl)N1CCN(C(=O)C2COc3ccccc3O2)CC1` (stereo unspecified), with 199 to 201 °C.
Then `ClCc1cc(Br)c2c(c1)OCO2`, with 100 to 102 °C; and `N#Cc1ccc(C=CC(=O)O)cc1`, with 250 to 252 °C.
`CN(C)S(=O)(=O)c1ccc(N)nc1` yielded a melting point of 150 to 152 °C.
For the molecule `CN(C)Cc1c(O)ccc2c1CCCC2`, the melting point lay within 77 to 79 °C.
Then `Cc1cc(N2CC(C(=O)O)CC2=O)ccc1Br` (stereo unspecified), with 167 to 169 °C.
`CCOC(=O)CCOc1ccc(C(C)=O)cc1` registered a melting point of 55 to 57 °C.
Then `O=C(O)CNC(=O)Nc1ccc(Br)cc1`, with 192 to 194 °C; and `O=[N+]([O-])c1ccc(-c2ncc(CO)o2)cc1`, with 154 to 156 °C.
Then `O=C(CCl)Nc1cc(-n2cnnn2)ccc1Cl`, with 179 to 181 °C; and `Nc1cccc2[nH]ncc12`, with 145 to 147 °C; and `NS(=O)(=O)Cc1cccc2cccnc12`, with 154 to 156 °C.
Then `CCOc1ccc(S(N)(=O)=O)cc1Br`, with 139 to 141 °C.
With `Cc1cc(Cl)nc(-c2ccncc2)n1`, the melting point lay in the range of 119 to 121 °C.
The same measure for `O=C(O)CCSc1ccccc1F`: 118 to 120 °C.
The same measure for `Cc1c(Br)cc(C(=O)O)cc1[N+](=O)[O-]`: 183 to 185 °C.
The same measure for `O=C(O)CNC(=O)c1cccc(F)c1`: 153 to 155 °C.
As to `CC(C(=O)O)c1ccc(N(C)C)cc1` (stereo unspecified), the melting point was 128 to 130 °C.
The same measure for `COc1cc(C2(C(=O)O)CCCC2)ccc1C`: 163 to 165 °C.
The same measure for `Cn1c(=O)c2[nH]c(S)nc2n(C)c1=O`: 328 to 330 °C; for `N#CCc1ccc(C(N)=O)cc1`: 186 to 188 °C; for `Cc1cc(=O)c(C(=O)O)nn1-c1ccccc1C(F)(F)F`: 145 to 147 °C.
Then `COC(=O)Cc1ccc(S(=O)(=O)Cl)s1`, with 59 to 61 °C.
`CS(=O)(=O)c1ccc(C(N)=S)cc1` had a melting point of 216 to 218 °C.
In turn, `O=S(=O)(c1nnc[nH]1)N1CCNCC1` gave a melting point of 240 to 242 °C.
Then `NS(=O)(=O)c1ccc(OCc2ccccc2Cl)cc1`, with 179 to 181 °C.
As for `Clc1ccc2[nH]c(C3CCCN3)nc2c1` (stereo unspecified), the melting point lay within 124 to 126 °C.
The same measure for `Cn1cc(C(N)=O)c(C(F)F)n1`: 214 to 216 °C.
`CCOc1cc(C=CC(=O)O)ccc1OCCOc1ccccc1` showed a melting point of 187 to 189 °C.
The same measure for `c1cn(C2CCNCC2)cn1`: 135 to 137 °C.
Then `O=c1[nH]c(C(F)(F)F)cs1`, with 91 to 93 °C; and `CCN(CC)c1ccc(S(N)(=O)=O)cc1NC(=O)CCl`, with 135 to 137 °C; and `COCCCNc1c(N)n(Cc2ccccc2)c(=O)[nH]c1=O`, with 148 to 150 °C.
Then `Cn1c(=O)c2nc(SCC(=O)O)[nH]c2n(C)c1=O`, with 259 to 261 °C; and `COc1ccc(NS(=O)(=O)c2cc(N)ccc2OC)cc1`, with 133 to 135 °C; and `Cc1cc(C(=O)O)c(C)s1`, with 114 to 116 °C.
`COc1ccc2cc(C(=O)O)[nH]c2c1` displayed a melting point of 190 to 192 °C.
Then `O=C(O)c1cccn2c(I)cnc12`, with 237 to 239 °C.
For the molecule `O=C1CCCc2cc(O)ccc2N1`, the melting point was 219 to 221 °C.
The same measure for `Cc1ccc(SCCC(=O)O)cc1C`: 35 to 37 °C; for `Cc1noc2nc(C3CC3)cc(C(=O)O)c12`: 215 to 217 °C.
The same measure for `NN1C(=O)NC(c2ccccc2)(c2ccccc2)C1=O`: 188 to 192 °C.
Then `Cc1noc(C(C)C)c1C(=O)O`, with 147 to 151 °C; and `COc1ccc(-c2[nH]c3ccc(F)cc3c2CCC(=O)O)cc1`, with 134 to 138 °C; and `Cc1ccc(N)cc1S(C)(=O)=O`, with 72 to 74 °C.
With `CS(=O)(=O)N1CCc2ccccc2C1CC(=O)O` (stereo unspecified), the melting point lay within 126 to 128 °C.
The molecule `COc1cc(C=NO)ccc1OC(F)F` returned a melting point of 57 to 59 °C.
The same measure for `COc1ccc(C(CC(=O)O)NC(C)=O)cc1` (stereo unspecified): 186 to 188 °C; for `O=C(O)c1csc(-c2cnn(-c3ccccc3)n2)n1`: 239 to 241 °C.
Then `O=S1(=O)CCC(O)c2ccccc21` (stereo unspecified), with 94 to 96 °C; and `COC(=O)N1CCc2cc(N)ccc21`, with 149 to 151 °C; and `NS(=O)(=O)c1cccc(-c2nnco2)c1`, with 184 to 186 °C.
Take `O=C(O)c1sc2cccc([N+](=O)[O-])c2c1Cl`: the melting point lay in the range of 219 to 221 °C.
Then `Cc1cccc(-c2nn(-c3ccccc3)cc2C(=O)O)c1`, with 146 to 148 °C; and `O=C1CCCc2c1[nH]c1ccc(Br)cc21`, with 189 to 191 °C; and `CC(Oc1ccc(C=CC(=O)O)cc1F)c1ccccc1` (stereo unspecified), with 168 to 170 °C.
Then `O=C(O)c1cccnc1Nc1ccccc1F`, with 215 to 217 °C; and `Cc1cccc(C)c1NC(=O)C(=O)O`, with 163 to 165 °C.
Then `NNc1nc2ccccc2[nH]1`, with 80 to 82 °C; and `COc1ccc(C(=O)NC(C(=O)O)c2ccccc2)cc1` (stereo unspecified), with 187 to 189 °C.
For `NNC1=NC(=O)C(=O)N1`, the melting point was in the range of 144 to 146 °C.
The same measure for `CCOc1cc(Br)c(C=O)cc1OCC`: 71 to 72 °C.
For `NS(=O)(=O)c1c(Cl)cccc1[N+](=O)[O-]`, the melting point was 143 to 145 °C.
The same measure for `O=C(O)c1cc(S(=O)(=O)Nc2ccc(Br)cc2)ccc1Cl`: 217 to 219 °C; for `CC(C)(C(=O)O)c1ccccc1Cl`: 111 to 113 °C; for `CC(C)C(NC(=O)C=Cc1ccc(C(N)=O)cc1)C(=O)O` (stereo unspecified): 235 to 237 °C.
`COc1ccc(-c2ccc(C(=O)O)c(F)c2)c(F)c1`: the melting point was in the range of 212 to 214 °C.
The same measure for `CC(C)n1ncc2cc(S(N)(=O)=O)ccc21`: 168 to 170 °C; for `O=C(O)c1cc(Cl)c(Cl)[nH]1`: 164 to 166 °C; for `CC(C)(C)c1cc(N)c(C#N)s1`: 99 to 101 °C.
The same measure for `CC1Oc2ccc(Br)cc2NC1=O` (stereo unspecified): 189 to 191 °C.
The same measure for `C#CCNC(=O)CBr`: 73 to 75 °C; for `CC(Oc1ccc(C23CC4CC(CC(C4)C2)C3)cc1)C(=O)O` (stereo unspecified): 153 to 155 °C.
Take `O=c1c(Cl)c(Cl)cnn1-c1ccc(Cl)cc1Cl`: the melting point fell in the range of 200 to 202 °C.
Then `CCNS(=O)(=O)c1ccccc1OC`, with 84 to 86 °C; and `Nc1ccc2[nH]c(=O)[nH]c2c1`, with 167 to 169 °C.
The same measure for `Cc1ccc(C(=O)NCC(=O)O)s1`: 66 to 68 °C.
As for `NC(=O)c1ccc(Cl)nn1`, the melting point was in the range of 239 to 241 °C.
The same measure for `O=c1c2ccccc2oc2ccc([N+](=O)[O-])cc12`: 203 to 205 °C; for `O=C(O)c1cccc(COc2cccc(F)c2)c1`: 108 to 110 °C.
The same measure for `Cc1c[nH]c(=O)n1-c1ccccc1Cl`: 199 to 201 °C; for `O=Cc1cc(Cl)cc([N+](=O)[O-])c1O`: 105 to 107 °C.
Then `COc1ccc2cc(CO)ccc2c1`, with 122 to 124 °C.
As for `O=CC(Br)C=O`, the melting point lay within 132 to 134 °C.
The same measure for `Nc1nc2ccccn2n1`: 123 to 125 °C; for `COc1ccc(C(=O)N(C)C)cc1N`: 119 to 121 °C.
The same measure for `O=C(Cc1ccccc1F)N1CCNCC1`: 77 to 79 °C; for `COC(=O)CC1CCCCC1=NO` (stereo unspecified): 74 to 76 °C.
The same measure for `O=C(O)CNC(=O)c1c(Cl)cccc1[N+](=O)[O-]`: 186 to 188 °C.
